The source of these data is the supplement of paper PMC8967900.
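Also: ALL cell lines in 384-well plates, five doses spanning 10,000-fold, each plate scaled between vehicle and 100 µmol/L benzalkonium chloride controls, sDSS an adapted area-under-curve metric.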

For the first test, the system named is 697. Put plainly: selective drug sensitivity score (sDSS, relative to normal bone marrow) (sDSS (score)); higher = more potent and effective on the cell line relative to normal bone marrow cells. The note with it: 72 h.
With `NC1(c2ccc(-c3nc4ccn5c(=O)[nH]nc5c4cc3-c3ccccc3)cc2)CCC1` [MK-2206] (top concentration 1000 nM), the “selective drug sensitivity score” value was determined as 3.76.

Turning to `O=C(Nc1cccc(NC(=O)c2cccc(O)c2O)c1)c1cccc(O)c1O` [MST-312] (top concentration 10000 nM), the “selective drug sensitivity score” value is -1.2.

`CC(=O)O[C@]1(C(C)=O)CC[C@H]2[C@@H]3C=C(C)C4=CC(=O)CC[C@]4(C)[C@H]3CC[C@@]21C` [Megestrol_acetate] (top concentration 10000 nM): the “selective drug sensitivity score” value stood at 2.52.

With `CO[C@@H]1[C@H](N(C)C(=O)c2ccccc2)C[C@H]2O[C@]1(C)n1c3ccccc3c3c4c(c5c6ccccc6n2c5c31)C(=O)NC4` [Midostaurin] (top concentration 10000 nM), the “selective drug sensitivity score” value amounted to 14.

For `CCCCCCCCCCCCCCCCOP(=O)([O-])OCC[N+](C)(C)C` [Miltefosine] (top concentration 100000 nM), the “selective drug sensitivity score” value is 1.46.

In the case of `Nc1ccccc1NC(=O)c1ccc(CNc2nccc(-c3cccnc3)n2)cc1` [Mocetinostat] (top concentration 10000 nM), the “selective drug sensitivity score” value amounted to 8.84.

As for `CCNC(=O)C[C@@H]1N=C(c2ccc(Cl)cc2)c2cc(OC)ccc2-n2c(C)nnc21` [Molibresib] (top concentration 10000 nM), the “selective drug sensitivity score” value was 7.4.

On to `Nc1ncnc2c1c(-c1cccc(OCc3ccccc3)c1)cn2[C@H]1C[C@@H](CN2CCC2)C1` [NVP-AEW541] (top concentration 10000 nM), for which the “selective drug sensitivity score” value was -2.72.

`CN[C@@H](C)C(=O)N[C@H](C(=O)N1CCC[C@H]1c1nc(C(=O)c2ccc(F)cc2)cs1)C1CCCCC1` [NVP-LCL161] (top concentration 25000 nM): the “selective drug sensitivity score” value was -4.92.

Another test concerns MHH-CALL-3. Described as above. The following applies: 72 h.
On to `Nc1ccccc1NC(=O)c1ccc(CNC(=O)OCc2cccnc2)cc1` [Entinostat] (top concentration 10000 nM), for which the “selective drug sensitivity score” value worked out at 11.4.

`C#Cc1cccc(Nc2ncnc3cc(OCCOC)c(OCCOC)cc23)c1` [Erlotinib] (top concentration 10000 nM): the “selective drug sensitivity score” value was found to be 1.66.

For `O=C(Nc1nc2cccc(-c3ccc(CN4CCS(=O)(=O)CC4)cc3)n2n1)C1CC1` [Filgotinib] (top concentration 10000 nM), the “selective drug sensitivity score” value is 1.26.

Turning to `C[C@H]1C=C2C(=O)O[C@H]3CC[C@@H](C1)[C@@]23O` [Galiellalactone] (top concentration 25000 nM), the “selective drug sensitivity score” value is 11.4.

With `CN(C)C1CCN(C(=O)c2ccc(NC(=O)Nc3ccc(-c4nc(N5CCOCC5)nc(N5CCOCC5)n4)cc3)cc2)CC1` [Gedatolisib] (top concentration 1000 nM), the “selective drug sensitivity score” value is -1.64.

Consider `Nc1ccn([C@@H]2O[C@H](CO)[C@@H](O)C2(F)F)c(=O)n1` [Gemcitabine] (top concentration 1000 nM), for which the “selective drug sensitivity score” value stood at 13.4.

Turning to `COc1cc2c(cc1-c1c(C)noc1C)ncc1[nH]c(=O)n([C@H](C)c3ccccn3)c12` [I-BET151] (top concentration 10000 nM), the “selective drug sensitivity score” value came to 14.3.

As to `O=C1CCc2c(Oc3ccc4c(c3)[C@@H]3[C@H](O4)[C@H]3c3nc4cc(C(F)(F)F)ccc4[nH]3)ccnc2N1` [Lifirafenib (BGB-283)] (top concentration 10000 nM), the “selective drug sensitivity score” value was determined as 0.68.

For `NC(=O)N1CCC(CC(=O)N2CCC([C@H]3c4ncc(Br)cc4CCc4cc(Cl)cc(Br)c43)CC2)CC1` [Lonafarnib] (top concentration 100000 nM), the “selective drug sensitivity score” value turned out to be 4.54.

Regarding `NC1(c2ccc(-c3nc4ccn5c(=O)[nH]nc5c4cc3-c3ccccc3)cc2)CCC1` [MK-2206] (top concentration 1000 nM), the “selective drug sensitivity score” value came out at 3.86.

Regarding `O=C(Nc1cccc(NC(=O)c2cccc(O)c2O)c1)c1cccc(O)c1O` [MST-312] (top concentration 10000 nM), the “selective drug sensitivity score” value was -4.

For the compound `CC(=O)O[C@]1(C(C)=O)CC[C@H]2[C@@H]3C=C(C)C4=CC(=O)CC[C@]4(C)[C@H]3CC[C@@]21C` [Megestrol_acetate] (top concentration 10000 nM), the “selective drug sensitivity score” value came out at 4.22.

As for `CO[C@@H]1[C@H](N(C)C(=O)c2ccccc2)C[C@H]2O[C@]1(C)n1c3ccccc3c3c4c(c5c6ccccc6n2c5c31)C(=O)NC4` [Midostaurin] (top concentration 10000 nM), the “selective drug sensitivity score” value is -0.64.

On to `CCCCCCCCCCCCCCCCOP(=O)([O-])OCC[N+](C)(C)C` [Miltefosine] (top concentration 100000 nM), for which the “selective drug sensitivity score” value was -2.94.

On to `Nc1ccccc1NC(=O)c1ccc(CNc2nccc(-c3cccnc3)n2)cc1` [Mocetinostat] (top concentration 10000 nM), for which the “selective drug sensitivity score” value is 12.4.

On to `CCNC(=O)C[C@@H]1N=C(c2ccc(Cl)cc2)c2cc(OC)ccc2-n2c(C)nnc21` [Molibresib] (top concentration 10000 nM), for which the “selective drug sensitivity score” value amounted to 16.7.

Turning to `Nc1ncnc2c1c(-c1cccc(OCc3ccccc3)c1)cn2[C@H]1C[C@@H](CN2CCC2)C1` [NVP-AEW541] (top concentration 10000 nM), the “selective drug sensitivity score” value is -7.62.

Turning to `CN[C@@H](C)C(=O)N[C@H](C(=O)N1CCC[C@H]1c1nc(C(=O)c2ccc(F)cc2)cs1)C1CCCCC1` [NVP-LCL161] (top concentration 25000 nM), the “selective drug sensitivity score” value is -3.22.

The test system of a further test is TANOUE. The description is as above. The note with it: 72 h.
Consider `Nc1ccccc1NC(=O)c1ccc(CNC(=O)OCc2cccnc2)cc1` [Entinostat] (top concentration 10000 nM), for which the “selective drug sensitivity score” value is -8.52.

As to `C#Cc1cccc(Nc2ncnc3cc(OCCOC)c(OCCOC)cc23)c1` [Erlotinib] (top concentration 10000 nM), the “selective drug sensitivity score” value was -1.24.

For the compound `O=C(Nc1nc2cccc(-c3ccc(CN4CCS(=O)(=O)CC4)cc3)n2n1)C1CC1` [Filgotinib] (top concentration 10000 nM), the “selective drug sensitivity score” value is -5.34.

Turning to `C[C@H]1C=C2C(=O)O[C@H]3CC[C@@H](C1)[C@@]23O` [Galiellalactone] (top concentration 25000 nM), the “selective drug sensitivity score” value is -0.94.

As to `CN(C)C1CCN(C(=O)c2ccc(NC(=O)Nc3ccc(-c4nc(N5CCOCC5)nc(N5CCOCC5)n4)cc3)cc2)CC1` [Gedatolisib] (top concentration 1000 nM), the “selective drug sensitivity score” value was -1.04.

For `Nc1ccn([C@@H]2O[C@H](CO)[C@@H](O)C2(F)F)c(=O)n1` [Gemcitabine] (top concentration 1000 nM), the “selective drug sensitivity score” value was -7.34.

Regarding `COc1cc2c(cc1-c1c(C)noc1C)ncc1[nH]c(=O)n([C@H](C)c3ccccn3)c12` [I-BET151] (top concentration 10000 nM), the “selective drug sensitivity score” value is -2.84.

For the compound `O=C1CCc2c(Oc3ccc4c(c3)[C@@H]3[C@H](O4)[C@H]3c3nc4cc(C(F)(F)F)ccc4[nH]3)ccnc2N1` [Lifirafenib (BGB-283)] (top concentration 10000 nM), the “selective drug sensitivity score” value was determined as 0.48.

`NC(=O)N1CCC(CC(=O)N2CCC([C@H]3c4ncc(Br)cc4CCc4cc(Cl)cc(Br)c43)CC2)CC1` [Lonafarnib] (top concentration 100000 nM): the “selective drug sensitivity score” value is -3.96.

On to `NC1(c2ccc(-c3nc4ccn5c(=O)[nH]nc5c4cc3-c3ccccc3)cc2)CCC1` [MK-2206] (top concentration 1000 nM), for which the “selective drug sensitivity score” value was -1.64.

With `O=C(Nc1cccc(NC(=O)c2cccc(O)c2O)c1)c1cccc(O)c1O` [MST-312] (top concentration 10000 nM), the “selective drug sensitivity score” value came out at 3.7.

`CC(=O)O[C@]1(C(C)=O)CC[C@H]2[C@@H]3C=C(C)C4=CC(=O)CC[C@]4(C)[C@H]3CC[C@@]21C` [Megestrol_acetate] (top concentration 10000 nM): the “selective drug sensitivity score” value is -0.38.

For `CO[C@@H]1[C@H](N(C)C(=O)c2ccccc2)C[C@H]2O[C@]1(C)n1c3ccccc3c3c4c(c5c6ccccc6n2c5c31)C(=O)NC4` [Midostaurin] (top concentration 10000 nM), the “selective drug sensitivity score” value was -7.24.

Take `CCCCCCCCCCCCCCCCOP(=O)([O-])OCC[N+](C)(C)C` [Miltefosine] (top concentration 100000 nM): the “selective drug sensitivity score” value turned out to be 1.76.

As to `Nc1ccccc1NC(=O)c1ccc(CNc2nccc(-c3cccnc3)n2)cc1` [Mocetinostat] (top concentration 10000 nM), the “selective drug sensitivity score” value was -8.46.

As to `CCNC(=O)C[C@@H]1N=C(c2ccc(Cl)cc2)c2cc(OC)ccc2-n2c(C)nnc21` [Molibresib] (top concentration 10000 nM), the “selective drug sensitivity score” value is -6.2.

Turning to `Nc1ncnc2c1c(-c1cccc(OCc3ccccc3)c1)cn2[C@H]1C[C@@H](CN2CCC2)C1` [NVP-AEW541] (top concentration 10000 nM), the “selective drug sensitivity score” value was -6.02.

For `CN[C@@H](C)C(=O)N[C@H](C(=O)N1CCC[C@H]1c1nc(C(=O)c2ccc(F)cc2)cs1)C1CCCCC1` [NVP-LCL161] (top concentration 25000 nM), the “selective drug sensitivity score” value was -5.82.
